Experimental data as given in US7053043B1, “Pharmaceutical compositions comprising synthetic peptide copolymers and methods for preventing and treating GVHD and HVGD” (Yeda Research and Development Co.Ltd., priority 1999, dated 2006).

Key:
[1] = system: proliferation of B10.PL (H-2u) responder cells to BALB/c stimulator cells; assay: Mixed lymphocyte reaction (MLR) across major histocompatibility barriers, B10.PL vs BALB/c; format: cell-based, mice; conditions: 20 μg/well, Cop 1 Batch I, 1:1 ratio of responder to stimulator cells
Description: Responder cells for MLR reactions across major histocompatibility barriers were harvested from spleen of non-immunized mice while responder cells for MLR across minor histocompatibility barriers were harvested from mice which were preimmunized with irradiated (30 Gy) 50×10^6 stimulator spleen cells 21 days before. Responder cells (5×10^5 spleen cells per well) were tested for their proliferative response by plating with different amounts (2.5 to 10×10^5) of irradiated stimulator cells, in presence or absence of various peptide inhibitors (10–100 μg per well). Cultures were set up in 200 μl media containing 10% FCS in flat-bottom microtiter plates. After 4 days of incubation, cultures were pulsed with 1 μCi of [^3H]thymidine for an additional 16 hours. Results are represented as mean counts per minute (cpm) thymidine incorporation from triplicate cultures.
To investigate the feasibility of inhibition of MLR by Copolymer 1, an MLR system was developed in which Copolymer 1 was tested for its ability to inhibit the proliferation of B10.PL (H-2^u) responder cells to stimulator cells of either the same (PL/J) or different (BALB/c) H-2 haplotype. For comparison, the inhibitory MBP Ac 1-11[4A], MBP 35-47, a combination of Ac 1-1[4A]+MBP 35-47, MBP 89-101 and KM-core peptides, described in Schlegel et al. (1994), were used in the MLR experiments.
The inhibition obtained by Copolymer 1 was similar (in response to minor histocompatibility antigen) or even higher (in response to major histocompatibility antigen) than the inhibition obtained with the combination of the two synthetic peptides Ac 1-11[4A] and MBP 35-47, which specifically bind to the class II molecules I-A^u and the I-E^u, respectively. The molar efficiency of Copolymer 1 of M.W. 6000 is even higher since the molecular weight of the synthetic peptides is 4–5 fold lower.

[2] = system: presentation of BALB/c minor H antigens by B10.D2 APC to B10.D2 responder T cells; assay: Proliferative responses to minor H antigens, APC pre-pulsed with Cop 1 and washed; format: cell-based, mice; conditions: washed
Description: B10.D2 mice were injected ip. with irradiated (20 Gy) BALB/c spleen cells 72 hours prior to the assay. B10.D2 spleen cells were harvested, depleted of red blood cells (RBC) and used as irradiated (10 Gy) antigen-presenting cells (APC) presenting BALB/c mH antigens. For the primary assay, APC were plated at 2.5×10^5 cells per well in 96-well round-bottom plates and incubated with 2.5×10^5 nylon-wool-enriched responder T cells (>88% CD3^+ by FACS analysis) from naive B10.D2 mice in the presence or absence of increasing concentrations of Copolymer 1 (2.5–80 μg/well). After 96 hours of incubation, cells were pulsed with 1 μCi [^3H]-thymidine for an additional 16 hours before harvesting. In the secondary assay, irradiated APC were plated at 2.5×10^5 cells/well in 96-well round-bottom plates, preincubated for 24 hours at 37° C. with increasing concentrations of GLAT (2.5–80 μg/well) or with medium alone, and thereafter washed three times before the addition of 2.5×10^5 nylon-wool-enriched responder T cells from naive B10.D2 mice. Culture medium was RPMI 1640, supplemented with 10% pre-screened fetal calf serum, 2 mM glutamine, 50 μM 2-mercaptoethanol, 100 U/ml penicillin, and 100 μg/ml streptomycin.
[…] Results are expressed as cpm from triplicate cultures. Standard deviations were <20% of the mean. Culture medium was RPMI 1640, supplemented with 10% pre-screened fetal calf serum, 2 mM glutamine, 50 μM 2-mercaptoethanol, 100 U/ml penicillin, and 100 μg/ml streptomycin.

Substance: Glatiramer acetate [Cop 1]
- inhibition of MLR [1]: 77%
- cpm (Cop 1 Pulsing Concentration) ([2]; APC pre-pulsed 24 hours with Cop 1 1.5 μg (Batch II)): 15,533 cpm
- cpm (Cop 1 Pulsing Concentration) ([2]; APC pre-pulsed 24 hours with Cop 1 5 μg (Batch II)): 12,377 cpm
- cpm (Cop 1 Pulsing Concentration) ([2]; APC pre-pulsed 24 hours with Cop 1 10 μg (Batch II)): 11,425 cpm
- cpm (Cop 1 Pulsing Concentration) ([2]; APC pre-pulsed 24 hours with Cop 1 20 μg (Batch II)): 10,465 cpm
- cpm (Cop 1 Pulsing Concentration) ([2]; APC pre-pulsed 24 hours with Cop 1 40 μg (Batch II)): 7,653 cpm
- cpm (Cop 1 Pulsing Concentration) ([2]; APC pre-pulsed 24 hours with Cop 1 80 μg (Batch II)): 4,628 cpm
